Measurements published in patent US6699901B1, “Dicarboxylato diammine platinum derivatives and compositions comprising them as anti-tumor agents” (priority 2000, dated 2004).
“Also recorded” adds a separate entry of the source. Where two headings read alike, the source gives them in different places.

Columns and labels:
[1] = test system: Kunming mice; assay: Acute toxicity, IP once a day for ten days, LD50 by Bliss method; assay type: in vivo
Source text: a). Divided 50 Kunming mice randomly into 5 groups, each having 10 mice, weighing from 18 g to 22 g and being half male and half female.

[2] = test system: human hepatic cancer cells BEL-7402; assay: IC50 on human hepatic cancer cells BEL-7402; assay type: cell-based
[3] = test system: cells of adenocarcinoma of breast; assay: IC50 on human breast cancer cells; assay type: cell-based
[4] = test system: human breast cancer, lung cancer, hepatic cancer, colorectal cancer and ovary cancer; assay: Nude mice inoculation carcinostatic rate experiments, human cancers; assay type: in vivo; details: for response carcinostatic rate: injected abdominally
Description: (§1) The mice were divided into three groups, which were given large dose (LD50×⅕), middle dose (LD50× 1/10) and small dose (LD50× 1/20) respectively. […] Beijing's institute for drug control carried out human hepatic cancer H22 nude mice inoculation carcinostatic rate experiments. […] Every group was given 0.2 ml every time per day for seven consecutive days. The mice were put to death thirty days after inoculation.

[5] = test system: human hepatic cancer H22; details: for response carcinostatic rate: intravenous, daily for seven days
Description: as §1

[6] = test system: rats; assay: Long-term toxicity experiments in rats
Source text: Thus we can not only know the target organs of toxic reactions and the reversibility of the damages through observing the main body reactions and degrees of injuries after three months of administration, but also determine nontoxic dose to provide reference for therapeutic safe dose.
c). […] Weighed the rats once a week and adjusted doses according to weight changes. Stopped administration after 12 weeks and continued observing for 2 weeks.

[7] = test system: human hepatic cancer BEL-7402 cells; assay: Dynamic growth of BEL-7402 cells cultured in vitro; assay type: cell-based; details: 10 μg/ml and 20 μg/ml, observed for eight days
Description: 1. […] From the third day on, the survival cells in the treated group were less than that in the control group, in which the cells grew logarithmically while those in the treated group decreased gradually. The difference among the groups became wider as time went by; moreover, the survival cells of 20 μg/ml group were less than those of 10 μg/ml group.
c). […] Then observed the dynamic growth of the cells for eight days. […] From the third day on, the cells in the control group grew logarithmically while those in the treated group decreased gradually. The difference among the groups became wider as time went by.

[8] = test system: lung cancer cells; assay: Selective killing experiment, lung cancer cells; assay type: cell-based, human; details: within a certain range of doses
[9] = test system: melanoma cells; assay: Selective killing experiment, melanoma cells; assay type: cell-based, human; details: within a certain range of doses
[10] = test system: human hepatic cancer BEL-7402 cells; assay: Ultra-microstructure of BEL-7402 cells by transmission electronic microscope; assay type: cell-based; details: different doses
Source text: 3. […] Then the changes of the ultra-microstructure were observed via transmission electronic microscope. […] The vacuoles and the lipid drop in the plasma increased drastically until necrotic changes, karyopyknosis, karyorrhexis, karyolysis and complete disintegration occurred (FIG. 6-FIG. 11).
e). […] The cells untreated appeared in the shape of irregular polygon, with abundant microvilli on the cell surface, plentiful organelles and different amount of glycogen granules in the plasma. […] The vacuoles and the lipid drop in the plasma increased drastically until necrotic changes, karyopyknosis, karyorrhexis, karyolysis and complete disintegration occurred.

[11] = test system: gastric cancer BGC-823 cells; assay: Determination of IC50, MTT, BGC-823 cells; assay type: cell-based
Description: a). Cultured gastric cancer BGC-823 cells in RPMJ-1640 nutritional fluid containing 15% fetal calf serum; then inoculated them onto 96-well culture plate, 1×10^4 cells per well; Put it in an incubator with temperature of 37° C. and 5% of CO2. […] After 72 hours of culture, added MTT fluid. An hour later, DMSO was added for coloration. OD value was assayed with enzyme labeling instrument. Finally, calculated the response rate of the drug in each concentration and determined IC50 based on the coordinate process.

[12] = test system: human oral cancer KB cells; assay: Determination of IC50, MTT, KB cells; assay type: cell-based; details: for Response rate: KB
[13] = test system: carnuncle S180; assay: Carcinostatic rates against carnuncle S180 in mice; assay type: in vivo, Kunming mice; details: for Mice After Injection: 10 mice before injection
[14] = test system: cancer; assay: Typical cases treated by oral capsules and injections; assay type: in vivo, human
Source text: 1. The oral capsules were composed of bicycloplatin and adjuvant.
2. […] A course of treatment took 6 times (12 ampoules). The second course of treatment began after an interval of two weeks. After three consecutive courses of treatment, general examination was taken.

[15] = Toxic reactions in clinical trial (five-degree classification by WHO); assay type: in vivo, human
[16] = Antitumor effects (test not specified)
[17] = Effectiveness on oral administration; assay type: in vivo
[18] = 12th week of administration and 2 weeks after withdrawal
[19] = rats, oral LD50/10 once a day for 90 days

## double 1,1-cyclobutane dicarboxylic acid diaminoplatin complex [bicycloplatin]
[1]; IP 96-400 mg/kg
  abnormal manifestations: did not occur except local irritation of the high concentration
  time of death: on the 3rd to 7th day
[1]; Kunming mice, IP once a day for ten consecutive days, Bliss method
  LD50±SE: 210.5 ± 1.14 mg/kg
[1]; determined under the same condition
  LD50 compared with cisplatin and carboplatin: significantly higher than the LD50 of cisplatin and carboplatin
[2]
  IC50: 1.3 µg/mL
[3]
  IC50: 2.8 µg/mL
[4]; large dose (LD50×⅕)
  response carcinostatic rate: 90%
[4]; middle dose (LD50×1/10)
  response carcinostatic rate: 95%
[4]; small dose (LD50×1/20)
  response carcinostatic rate: 70%
[4]; same doses given by stomach lavage, compared with abdominal injection
  carcinostatic rates: a little lower carcinostatic rates
[5]; every group containing ten mice
  death of nude mice: No death of nude mice was observed
[5]; large dose (LD50×⅕)
  response carcinostatic rate: 50.85%
[5]; middle dose (LD50×1/10)
  response carcinostatic rate: 57.40%
[5]; small dose (LD50×1/20)
  response carcinostatic rate: 35.20%
[6]; [18]
  BUN, GPT, GOT versus control group: no significant difference
  WBC, RBC, hemoglobin, platelet: all within normal ranges
[6]; after observation
  histological examination, livers and spleens: different degrees of hyperemia and edema
  histological examination, other visceras: No organic changes caused by the drug are found
  other visceral coefficients: all normal
[6]; after observation, versus control group
  weights of the livers: slightly heavier than that of the control group
[6]; [19]
  diet, activity and state of the rats: no obvious abnormality
  mortality: No mortally occurred
[6]; rats, three months of administration
  injuries of the drug to viscera: dose-dependent
[6]; small dose
  damage and recovery: does a little damage to the group and the group can recover fully
[6]; therapeutic dose
  reversibility of injuries: alleviated after one month of withdrawal
[7]
  inhibition of growth of BEL-7402 cells: could inhibit the growth of human hepatic cancer BEL-7402 cells cultured in vitro dependent on time and dose; also recorded: potent antitumor effects on human hepatic cancer BEL-7402 cells dependent on doses
[8]
  lung cancer cells killed: 50%
[9]
  melanoma cells (melanophore) killed: 80%
[10]
  cell death: Five days later cell death occurred
  changes of the ultra-microstructure: degenerative changes of different degrees with the increase of the concentration of drug; also recorded: degenerative changes of different degrees with the increase of the concentration of bicycloplatin
[11]; BGC-823, 0.78 μg/ml
  Response rate: 6.0%
[11]; BGC-823, 1.56 μg/ml
  Response rate: 19.0%
[11]; BGC-823, 3.13 μg/ml
  Response rate: 21.0%
[11]; BGC-823, 6.25 μg/ml
  Response rate: 33.0%
[11]; BGC-823, 12.5 μg/ml
  Response rate: 51.0%
[11]; BGC-823, 25 μg/ml
  Response rate: 60.0%
[11]; BGC-823, 50 μg/ml
  Response rate: 74.6%
[11]; BGC-823, 100 μg/ml
  Response rate: 80.3%
[11]; BGC-823, 200 μg/ml
  Response rate: 83.3%
[11]; BGC-823, 72 hours
  IC50: IC50 = 14.80 ± 1.34 μg/ml
[12]; KB cells, 72 hours
  IC50: IC50 = 13.24 ± 1.33 μg/ml
[12]; 0.78 μg/ml
  Response rate: 5.9%
[12]; 1.56 μg/ml
  Response rate: 14.8%
[12]; 3.13 μg/ml
  Response rate: 28.2%
[12]; 6.25 μg/ml
  Response rate: 26.2%
[12]; 12.5 μg/ml
  Response rate: 36.7%
[12]; 25 μg/ml
  Response rate: 66.6%
[12]; 50 μg/ml
  Response rate: 77.1%
[12]; 100 μg/ml
  Response rate: 93.0%
[12]; 200 μg/ml
  Response rate: 93.3%
[13]; 10-30 mg/kg
  antitumor effects on S180: potent antitumor effects on S180 dependent on doses
[13]; S180, 10 mg/kg
  Body Weight After Injection: 25.8 g
  Response rate: 39.7%
  Tumor Weight: 1.03 ± 0.30 g
  Mice After Injection: 10
[13]; S180, 20 mg/kg
  Body Weight After Injection: 18.1 g
  Response rate: 68.0%
  Tumor Weight: 0.54 ± 0.16 g
  Mice After Injection: 10
[13]; S180, 30 mg/kg
  Body Weight After Injection: 21.5 g
  Response rate: 71.0%
  Tumor Weight: 0.49 ± 0.16 g
  Mice After Injection: 10
[14]; Patient Li, end of the 2nd course of treatment
  tumor: basically disappeared
[14]; Patient Ma, hepatic cancer, capsules and injections, after two months
  lung metastatic carcinoma: disappeared
[14]; Patient Meng, adenocarcinoma of lung at late stage, injections and oral capsules
  outcome: cured in general
[14]; Patient Wang, late hepatic cancer
  final outcome: the tumor disappeared
[14]; Patient Yang, melanoma, metastasis to liver and lung, 36 ampoules
  outcome: The metastatic tumors had been cured and the melanoma had necrosed
[14]; Patient Zhu, cystic cancer, oral capsules
  three masses with size of 2×2 cm^2: disappeared completely
[14]; foreign patient, intestinal cancer, 36 ampoules and 36 oral capsules
  metastasis to liver: disappeared
[15]
  adverse reactions: no adverse reactions occur
[16]
  antitumor spectrum: Broad Antitumor Spectrum
[17]
  effectiveness on oral administration: significant therapeutic effects
